# Marks after values point to notes of the source that are not given here.
# Tested on: mast cell
# Assay: Mast cell degranulation in rats (histamine released)
# Format: in vivo
# Settings: 25 mg/kg p.o., mean ± S.E.M.
# Experimental: Mast cell degranulation: Tyrode solution (10 ml) containing 5 units/ml of heparin was injected in the peritoneal cavity of sensitized male rats lightly anaesthetized with ether. After a gentle abdominal massage for about 30 to 45 sec, the mast cell rich peritoneal fluid was collected over ice and centrifuged at 2000 rpm for 5 min. The cells were washed thrice with chilled Tyrode and resuspended in about 1 ml of Tyrode solution. The peritoneal fluid was obtained from 10 rats and the final volume of the fluid was pooled and used for the studies (Nair A M et al, 1997).
structure (smiles),measurement,value
CN(C)CCC(c1ccccc1)c1ccccn1.O=C(O)/C=C\C(=O)O (stereo not shown) [Avil],Histamine released,0.345 ± 0.04^b μg/ml

# — US20060141067A1, “Anti-allergic herbal formulation” (priority 2004, published 2006)
